Laboratory results reported in PubChem BioAssay AID330 (DTP/NCI, 2004).
Values joined by “and” are separate entries in the source; they are usually repeats but may differ in a detail not shown here. Equal entries are not always repeated. Inconclusive results and toxic doses are left out. Rule for the calls: active = survival T/C of 150% or more; inactive = T/C below 125% in these data.

System: P388 leukemia ip, CD2F1 mice, survival T/C
Assay: NCI In Vivo Anticancer Drug Screen. Data for tumor model P388 Leukemia (intraperitoneal) in CD2F1 (CDF1) mice
Settings: endpoint: median survival time, higher = longer survival
Procedure, shortened: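 Mice carrying the transplanted tumor received test compound or vehicle. Survival was recorded in each group, and the value is the treated-group measurement divided by that of the vehicle-treated control group.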

[1] = dose: 50.0 mg/kg/injection, schedule: Q01DX005 (ip), vehicle: Klucel (hydroxypropylcellulose) (HPC)
[2] = dose: 100.0 mg/kg/injection, schedule: Q01DX005 (ip), vehicle: Klucel (hydroxypropylcellulose) (HPC)
[3] = dose: 50.0 mg/kg/injection, schedule: Q01DX005 (ip), vehicle: saline
[4] = dose: 100.0 mg/kg/injection, schedule: Q01DX005 (ip), vehicle: saline
[5] = dose: 200.0 mg/kg/injection, schedule: Q01DX005 (ip), vehicle: saline
[6] = dose: 100.0 mg/kg/injection, schedule: Q04DX003 (ip), vehicle: saline with Tween-80
[7] = dose: 100.0 mg/kg/injection, schedule: Q01DX009 (ip), vehicle: saline with Tween-80
[8] = dose: 200.0 mg/kg/injection, schedule: Q01DX009 (ip), vehicle: saline with Tween-80
[9] = dose: 400.0 mg/kg/injection, schedule: Q01DX009 (ip), vehicle: saline with Tween-80
[10] = dose: 25.0 mg/kg/injection, schedule: Q01DX009 (ip), vehicle: saline
[11] = dose: 50.0 mg/kg/injection, schedule: Q01DX009 (ip), vehicle: saline
[12] = dose: 100.0 mg/kg/injection, schedule: Q01DX009 (ip), vehicle: saline
[13] = dose: 200.0 mg/kg/injection, schedule: Q01DX009 (ip), vehicle: saline
[14] = dose: 400.0 mg/kg/injection, schedule: Q01DX009 (ip), vehicle: saline
[15] = dose: 12.5 mg/kg/injection, schedule: Q01DX005 (ip), vehicle: saline with Tween-80
[16] = dose: 25.0 mg/kg/injection, schedule: Q01DX005 (ip), vehicle: saline with Tween-80
[17] = dose: 200.0 mg/kg/injection, schedule: Q01DX005 (ip), vehicle: Klucel (hydroxypropylcellulose) (HPC)

Measured: T/C

CC1CCCCN1c1cc2nc[nH]c(=O)c2cc1[N+](=O)[O-] (stereo not drawn)
inactive: dose: 100.0 mg/kg/injection, schedule: Q04DX003 (ip), vehicle: Klucel (hydroxypropylcellulose) (HPC) 108 % of control | dose: 200.0 mg/kg/injection, schedule: Q04DX003 (ip), vehicle: Klucel (hydroxypropylcellulose) (HPC) 99 % of control | dose: 400.0 mg/kg/injection, schedule: Q04DX003 (ip), vehicle: Klucel (hydroxypropylcellulose) (HPC) 100 % of control

CN1C2CCC1C(O)C(c1ccc(Cl)cc1)C2 (stereo not drawn)
inactive: dose: 25.0 mg/kg/injection, schedule: Q01DX005 (ip), vehicle: Klucel (hydroxypropylcellulose) (HPC) 100 % of control | [1] 100 % of control | [2] 91 % of control

CC(=O)N1CCC(/C(C)=N/O)CC1
inactive: [3] 107 % of control | [4] 101 % of control | [5] 106 % of control

O=C1CC[S][Sn][O]1
inactive: [6] 100 % of control | dose: 200.0 mg/kg/injection, schedule: Q04DX003 (ip), vehicle: saline with Tween-80 95 % of control | dose: 400.0 mg/kg/injection, schedule: Q04DX003 (ip), vehicle: saline with Tween-80 95 % of control

COC(=O)c1nnc(C(=O)OC)c2c1[nH]c1ccccc12
inactive: dose: 60.0 mg/kg/injection, schedule: Q01DX005 (ip), vehicle: saline with Tween-80 96 % of control | dose: 120.0 mg/kg/injection, schedule: Q01DX005 (ip), vehicle: saline with Tween-80 103 % of control | dose: 240.0 mg/kg/injection, schedule: Q01DX005 (ip), vehicle: saline with Tween-80 94 % of control

CC(C)=CC(=O)O
inactive: dose: 50.0 mg/kg/injection, schedule: Q01DX009 (ip), vehicle: saline with Tween-80 99 % of control | [7] 101 % of control | [8] 100 % of control | [9] 90 % of control

NC(N)=O
inactive: dose: 12.5 mg/kg/injection, schedule: Q01DX009 (ip), vehicle: saline 100 % of control | [10] 105 % of control | [11] 105 % of control | [12] 102 % of control | [13] 100 % of control | [14] 98 % of control

CCC(C)(F)C(N)C(=O)O (stereo not drawn)
inactive: [3] 100 % of control | [4] 97 % of control | [5] 100 % of control

Cc1cc(C)nc(NS(=O)(=O)c2ccc(NC(=O)C(Cl)(Cl)Cl)cc2)n1
inactive: dose: 6.25 mg/kg/injection, schedule: Q01DX005 (ip), vehicle: saline with Tween-80 104 % of control | [15] 101 % of control | [16] 94 % of control

CCN(CC)C1=C2/C=CC3=C2\C(=C/C=C\C=C/1C)CC3=O
inactive: dose: 60.0 mg/kg/injection, schedule: Q01DX005 (ip), vehicle: Klucel (hydroxypropylcellulose) (HPC) 95 % of control | dose: 120.0 mg/kg/injection, schedule: Q01DX005 (ip), vehicle: Klucel (hydroxypropylcellulose) (HPC) 98 % of control | dose: 240.0 mg/kg/injection, schedule: Q01DX005 (ip), vehicle: Klucel (hydroxypropylcellulose) (HPC) 96 % of control

C[n+]1c(-c2cccc(OCCCCCCCOc3cccc(-c4c5cc(N)ccc5c5ccc(N)cc5[n+]4C)c3)c2)c2cc(N)ccc2c2ccc(N)cc21
inactive: dose: 0.05 mg/kg/injection, schedule: Q01DX009 (ip), vehicle: water 123 % of control | dose: 25.0 micrograms/kg/injection, schedule: Q01DX009 (ip), vehicle: water 103 % of control | dose: 50.0 micrograms/kg/injection, schedule: Q01DX009 (ip), vehicle: water 118 % of control | dose: 100.0 micrograms/kg/injection, schedule: Q01DX009 (ip), vehicle: water 120 % of control | dose: 200.0 micrograms/kg/injection, schedule: Q01DX009 (ip), vehicle: water 100 % of control

COc1cc(NCCCCCNC(C)C)c2ncc(C)c(C)c2c1
inactive: dose: 12.5 mg/kg/injection, schedule: Q01DX005 (ip), vehicle: saline 102 % of control | dose: 25.0 mg/kg/injection, schedule: Q01DX005 (ip), vehicle: saline 100 % of control | [3] 100 % of control

CCCCCCCCCCCC(=O)NCCCCCC(=O)NC1C(C)OC(Nc2ncnc3nc[nH]c23)C(O)C1O (stereo not drawn)
inactive: dose: 0.5 mg/kg/injection, schedule: Q01DX009 (ip), vehicle: water 99 % of control | dose: 1.0 mg/kg/injection, schedule: Q01DX009 (ip), vehicle: water 99 % of control | dose: 2.0 mg/kg/injection, schedule: Q01DX009 (ip), vehicle: water 115 % of control | dose: 4.0 mg/kg/injection, schedule: Q01DX009 (ip), vehicle: water 115 % of control | dose: 8.0 mg/kg/injection, schedule: Q01DX009 (ip), vehicle: distilled water + Tween-80 87 % of control | dose: 8.0 mg/kg/injection, schedule: Q01DX009 (ip), vehicle: water 117 % of control | dose: 16.0 mg/kg/injection, schedule: Q01DX009 (ip), vehicle: distilled water + Tween-80 89 % of control | dose: 32.0 mg/kg/injection, schedule: Q01DX009 (ip), vehicle: distilled water + Tween-80 114 % of control | dose: 64.0 mg/kg/injection, schedule: Q01DX009 (ip), vehicle: distilled water + Tween-80 123 % of control

CC(=O)Nc1ccc(/C=N/Nc2ccc([N+](=O)[O-])cn2)cc1
inactive: [12] 86 % of control | [13] 90 % of control | [14] 90 % of control

O=S(=O)(Cc1ccccc1)C1CC1
inactive: [11] 122 % of control | dose: 50.0 mg/kg/injection, schedule: Q01DX009 (ip), vehicle: suspension in saline 104 % of control and 106 % of control | [12] 119 % of control | dose: 100.0 mg/kg/injection, schedule: Q01DX009 (ip), vehicle: suspension in saline 108 % of control and 94 % of control | [13] 118 % of control | dose: 200.0 mg/kg/injection, schedule: Q01DX009 (ip), vehicle: suspension in saline 102 % of control and 97 % of control | [14] 102 % of control | dose: 400.0 mg/kg/injection, schedule: Q01DX009 (ip), vehicle: suspension in saline 100 % of control and 105 % of control

CCn1c(=O)c2[nH]c(C(F)(F)F)nc2n(CC)c1=O
inactive: dose: 25.0 mg/kg/injection, schedule: Q01DX009 (ip), vehicle: Klucel (hydroxypropylcellulose) (HPC) 86 % of control | dose: 50.0 mg/kg/injection, schedule: Q01DX009 (ip), vehicle: Klucel (hydroxypropylcellulose) (HPC) 99 % of control

Cc1ccc(S(=O)(=O)C(Cc2cc(Cl)cc(Cl)c2O)C(=O)c2ccccc2)cc1 (stereo not drawn)
inactive: [1] 101 % of control | [2] 90 % of control | [17] 92 % of control

Nc1nc(-c2ccccn2)cc2ccc(Cl)cc12
inactive: dose: 100.0 mg/kg/injection, schedule: Q01DX001 (ip), vehicle: saline with Tween-80 101 % of control | dose: 200.0 mg/kg/injection, schedule: Q01DX001 (ip), vehicle: saline with Tween-80 104 % of control | dose: 400.0 mg/kg/injection, schedule: Q01DX001 (ip), vehicle: saline with Tween-80 104 % of control

CC1(C)N=C(N)N=C(N)N1c1ccc(CN)cc1
inactive: dose: 60.0 mg/kg/injection, schedule: Q01DX005 (ip), vehicle: saline 110 % of control | dose: 120.0 mg/kg/injection, schedule: Q01DX005 (ip), vehicle: saline 103 % of control | dose: 240.0 mg/kg/injection, schedule: Q01DX005 (ip), vehicle: saline 106 % of control

O=C1c2ccccc2C2(O)C3C=CCCN3CN12 (stereo not drawn)
inactive: [1] 101 % of control | [2] 100 % of control | [17] 100 % of control

CC(C)NC(=O)OCc1cn2c(c1COC(=O)NC(C)C)CCC2
inactive: [15] 120 % of control and 121 % of control | [16] 112 % of control

CN(C)c1ccc(CN2CCCN(Cc3ccc(N(C)C)cc3)C2c2ccncc2)cc1
inactive: [7] 100 % of control | [8] 100 % of control | [9] 100 % of control

CC(C)(C)N1CC1CN (stereo not drawn)
inactive: [10] 100 % of control | [11] 107 % of control | [12] 105 % of control

Cc1c2oc3c(C)ccc(C(=O)NCCCN4CCN(C)CC4)c3nc-2c(C(=O)NCCCN2CCN(C)CC2)c(N)c1=O
inactive: dose: 6.25 mg/kg/injection, schedule: Q04DX003 (ip), vehicle: saline with Tween-80 106 % of control | dose: 12.5 mg/kg/injection, schedule: Q04DX003 (ip), vehicle: saline with Tween-80 104 % of control | dose: 25.0 mg/kg/injection, schedule: Q04DX003 (ip), vehicle: saline with Tween-80 114 % of control and 117 % of control | [6] 123 % of control
